# Columns and labels:
# [1] = Critical (phase transition) temperature Tc by differential scanning calorimetry; format: physicochemical; conditions: lipids 21 and 25, DSC, heating rate 5° C./minute
# Description: General. Melting points for the diols and the phase transition temperature Tc for the cationic lipids were determined by differential scanning calorimetry (DSC), using a TA-Instruments Q100 DSC, and a heating rate of 5° C./minute. The IR spectra were recorded on a Nicolet Avatar 360 FTIR spectrophotometer in the range 650-4000 cm^−1 using a ZnSe—attenuated total reflectance (ATR) accessory. The compounds were solved in a small amount of solvent (MeOH for the diols, CHCl3 for the lipids), and the resulted solutions were left to evaporate to dryness on the surface of the ZnSe crystals of the ATR accessory. The NMR spectra were recorded at ≈303 K with a Varian Inova spectrometer equipped with a 5 mm indirect detection probe, operating at 500 MHz for ^1H-NMR and at 125 MHz for ^13C-NMR. Chemical shifts are reported as δ values, using TMS as internal standard for proton spectra and the solvent resonance for carbon spectra. Assignments were made based on signal intensity, selective decoupling, COSY (^1H-^1H) and HETCOR (^1H-^13C) sequences. Elemental analyses were performed by combustion, using a Perkin Elmer 2400 Series II CHNS analyser.
# Dioleoylphosphatidylethanolamine (DOPE), cholesterol (CHOL), N-(2,3-dioleoyloxypropyl)-N,N,N-trimethylammonium chloride (DOTAP) were commercial products. The purity of the lipids was checked by thin layer chromatography and also by differential scanning calorimetry (DSC), which was also used for determining the critical temperature Tc. For the preparation of the liposomes a protocol optimized for this type of compounds was adopted as follows. The cationic lipid (with or without helper lipid) was dissolved in chloroform/methanol (2/1, v/v) to reach a final concentration of 1 mM for the charged species. From this stock solution 50 μL were aliquoted in a 1 mL tube and the solvent was evaporated in a SpeedVac evaporator, under vacuum, for 1 h. The dried lipid film was prepared by removing the traces of organic solvent in a dessicator, over Drierite®, under vacuum, overnight. The film was hydrated with 500 μL sterile phosphate buffer saline (PBS) the tube was purged with sterile N2, and vortexed for 1 minute. The liposomes were generated by sonicating the tube in a water bath sonicator for 5-30 minutes at 62° C. and at 37° C. for DOTAP. After sonication the preparations were allowed to reach room temperature.
# Materials and Methods. Melting points for the diols, acetates and ketals were determined on a Boetius heating plate microscope and are uncorrected. For the cationic lipids 21 and 25 the phase transition temperature Tc was determined by differential scanning calorimetry (DSC), using a TA-Instruments Q100 DSC, and a heating rate of 5° C./minute. The IR spectra were recorded on a Nicolet Avatar 360 FTIR spectrophotometer, in the range 650-4000 cm^−1, using a ZnSe—attenuated total reflectance (ATR) accessory. The compounds were solved in a small amount of solvent (MeOH for the diols, CHCl3 for the esters), the resulted solutions being left to evaporate to dryness on the surface of the ZnSe crystals of the ATR accessory. This technique was imposed by the poor results obtained in transmission mode for some of the compounds, due to the lack of crystallization, hygroscopicity and other problems related with working with KBr pellets. The NMR spectra were recorded at ≈303 K with a Varian Gemini 300BB spectrometer operating at 300 MHz for ^1H and at 75 MHz for ^13C. Chemical shifts are reported as δ values, using TMS as internal standard for proton spectra and the solvent resonance for carbon spectra: 77.00 ppm in CDCl3, 39.50 ppm in DMSO-d6, the line from 123.50 ppm in pyridine-d5, 62.80 ppm in nitromethane-d3, 30.10 ppm in dimethylformamide-d7. Assignments were made based on signal intensity, selective decoupling and COSY (^1H-^1H) and HETCOR (^1H-^13C) sequences. Nitrogen elemental analysis was performed by combustion, mixing the samples with small amounts of quartz sand.
# [2] = test system: HeLa cells (human carcinoma cell line ATCC No. CCL-2); experiment: Luciferase (pGL3-Control) transfection efficiency, HeLa cells; format: cell-based; conditions: no helper lipid, DOTAP as reference
# Description: Transfection experiments were carried out in vitro on HeLa cells (human carcinoma cell line ATCC No. CCL-2), using a pGL3-Control plasmid (Promega, Madison, Wisc.), which encodes the firefly luciferase reporter. The structurally related and commercially available DOTAP (2) mentioned earlier was chosen as reference.
# HeLa cell line was obtained from ATCC, MD. The plasmid pGL3-control, encoding a firefly luciferase reporter was from Promega (Madison, Wisc.). As transfection reference we used N-[1-(2,3-dioleoyloxy)propyl]-N,N,N-trimethylammonium methylsulfate (DOTAP), obtained from Roche Molecular Biochemicals (Indianapolis, Ind.). The BCA protein assay kit was from Pierce (Rockford, Ill.).
# All of the pyridinium cationic lipids, along with the DOTAP reference, were tested in triplicate in two independent assays. The pyridinium cationic lipids containing tetrafluoroborate (BF4^−) or perchlorate (ClO4^−) anion were dissolved in ethanol/chloroform. The lipid solution was evaporated to dryness using a Speedvac rotary evaporating device, under vacuum. Traces of solvents were removed from the lipid film by keeping the vials under vacuum for another 3 hours. Ultrapure water was added to the dry lipid film, so that a final 1 μg/μL concentration could be reached, and the lipid film was allowed to hydrate overnight. […]
smiles,measurement,setting,value
"CCCCCCCCCCCCCCCC(=O)OCC(COC(=O)CCCCCCCCCCCCCCC)[n+]1c(C)cc(C)cc1C.F[B-](F)(F)F [Lipid 25AbP, 1-(1,3-Dipamitoyloxypropane-2-yl)-2,4,6-trimethylpyridinium tetrafluoroborate]",Tc (phase transition temperature),[1],70 °C
same,transfection efficiency (in words),[2],comparable with that of DOTAP
